# Experimental data taken from patent US20240425484A1, “INHIBITORS OF TYK2” (Atomwise Inc., priority 2023, published 2024).
# Target: T1, TYK2-JH2 (Homo sapiens, UniProt P29597)
# T1 construct: TYK JH2 enzyme mix (ChemPartner: CP20210818A-BV); purchased ChemPartner CP20210818A-BV
# Test: TYK2-JH2 HTRF binding assay (ligand efficiency)
# Settings: calculated (Equation 1) from IC50 of the TYK-JH2 binding assay
# Protocol: The following example describes the TYK2-JH2 HTRF binding assay used to determine the ligand efficiency of the TYK2 inhibitors.
# To calculate ligand efficiency, Equation 1 is applied: […]
# in which IC50 comes from the binding assay used to determine compound potency.
# TYK JH2 enzyme mix (ChemPartner: CP20210818A-BV), tracer (ChemPartner: CP-0029472-051) and mAb Anti-6HIS Tb cryptate Gold (Cisbio: Cat No. 61HI2TLA) mix were prepared in assay buffer (10 mM MgCl2, 20 mM HEPES pH 7.5, 0.01% Triton X-100, 1 mM DTT). Compounds diluted in DMSO (Final Concentrations 0.1 to 0.000005 [μM]) and enzyme mix (0.5 nM Final Concentration) were added to 384 well plates, briefly centrifuged and incubated at room temperature for 10 minutes. After incubation, tracer mix (Tracer-35 nM final concentration); (MAb Anti-6HIS Tb cryptate Gold-0.5X final)) was added, briefly centrifuged then incubate at room temperature 60 minutes. After incubation, plates were read by Envision TR-FRET (Ex340/Em495/520) protocol (PerkinElmer-Envision 2104 multilabel plate reader).
# T1 sequence (P29597 589-875 limits assumed): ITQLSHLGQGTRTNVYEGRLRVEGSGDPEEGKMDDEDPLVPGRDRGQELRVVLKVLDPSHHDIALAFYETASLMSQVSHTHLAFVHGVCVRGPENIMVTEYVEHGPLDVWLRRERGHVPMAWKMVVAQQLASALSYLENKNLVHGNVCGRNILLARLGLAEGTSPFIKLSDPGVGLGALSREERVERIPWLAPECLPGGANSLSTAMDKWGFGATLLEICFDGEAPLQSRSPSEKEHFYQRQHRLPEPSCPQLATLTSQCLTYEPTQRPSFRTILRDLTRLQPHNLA
row,Compound,Ligand Efficiency
1,"CC(c1ccc(Nc2ncnc(Nc3ncccc3S(C)(=O)=O)c2F)nc1)N1CC2(COC2)C1 (centres unmarked) [Compound 75, N^4-(5-(1-(2-oxa-6-azaspiro[3.3]heptan-6-yl)ethyl)pyridin-2-yl)-5-fluoro-N^6-(3-(methylsulfonyl)pyridin-2-yl)pyrimidine-4,6-diamine]",† (†: <0.37)
2,"Cc1ccnc(Nc2cc(Nc3ccccc3C(N)=O)ncn2)n1 [Compound 58, 2-(6-(4-methylpyrimidin-2-ylamino)pyrimidin-4-ylamino)benzamide]",††† (†††: >0.39)
3,"Cc1cnnc(Nc2cc(Nc3ccccc3C(N)=O)ncn2)c1 [Compound 47, 2-((6-((5-methylpyridazin-3-yl)amino)pyrimidin-4-yl)amino)benzamide]",††† (†††: >0.39)
4,"CC1(Nc2ccc(Nc3cc(Nc4ncccc4S(C)(=O)=O)ncn3)nc2)COC1 [Compound 21, N^4-(5-((3-methyloxetan-3-yl)amino)pyridin-2-yl)-N^6-(3-(methylsulfonyl)pyridin-2-yl)pyrimidine-4,6-diamine]",††† (†††: >0.39)
5,Cc1cccc(Nc2cc(Nc3ccccc3C(N)=O)ncn2)n1 [Compound 46],††† (†††: >0.39)
6,"CC1(CNc2ccc(Nc3cc(Nc4ncccc4S(C)(=O)=O)ncn3)nc2)COC1 [Compound 36, N^4-(5-(((3-methyloxetan-3-yl)methyl)amino)pyridin-2-yl)-N^6-(3-(methylsulfonyl)pyridin-2-yl)pyrimidine-4,6-diamine]",††† (†††: >0.39)
7,"CS(=O)(=O)c1cccnc1Nc1cc(Nc2ccc(NC3CC(F)(F)C3)cn2)ncn1 [Compound 37, N^4-(5-(3,3-difluorocyclobutylamino)pyridin-2-yl)-N^6-(3-(methylsulfonyl)pyridin-2-yl)pyrimidine-4,6-diamine]",††† (†††: >0.39)
8,"Cc1cccc(Nc2cc(Nc3ccncc3S(C)(=O)=O)ncn2)n1 [Compound 60, N^4-(6-methylpyridin-2-yl)-N^6-(3-(methylsulfonyl)pyridin-4-yl)pyrimidine-4,6-diamine]",††† (†††: >0.39)
9,"C[C@@H](c1ccc(Nc2cc(Nc3ncccc3S(C)(=O)=O)ncn2)nc1)N1CC2(CCOC2)C1 [Compound 32, (S)—N^4-(5-(1-(6-oxa-2-azaspiro[3.4]octan-2-yl)ethyl)pyridin-2-yl)-N^6-(3-(methylsulfonyl)pyridin-2-yl)pyrimidine-4,6-diamine]",††† (†††: >0.39)
10,"Cc1cccc(Nc2cc(Nc3cccnc3C(N)=O)ncn2)n1 [Compound 50, 3-((6-((6-methylpyridin-2-yl)amino)pyrimidin-4-yl)amino) picolinamide]",††† (†††: >0.39)
11,"COc1ccnc(Nc2cc(Nc3cccc(C)n3)ncn2)c1S(C)(=O)=O [Compound 65, N^4-(4-methoxy-3-(methylsulfonyl)pyridin-2-yl)-N^6-(6-methylpyridin-2-yl)pyrimidine-4,6-diamine]",††† (†††: >0.39)
12,"CS(=O)(=O)c1ccccc1Nc1cc(Nc2ccc3c(n2)CCCC3N2CC3(CCOCC3)C2)ncn1 (centres unmarked) [Compound 27, N^4-(5-(7-oxa-2-azaspiro[3.5]nonan-2-yl)-5,6,7,8-tetrahydroquinolin-2-yl)-N^6-(2-(methylsulfonyl)phenyl)pyrimidine-4,6-diamine]",† (†: <0.37)
13,"CS(=O)(=O)c1cccnc1Nc1cc(Nc2ccc3c(n2)CC[C@@H]3N2CC3(COC3)C2)ncn1 [Compound 9, N^4-((5S)-5-(2-oxa-6-azaspiro[3.3]heptan-6-yl)-6,7-dihydro-5H-cyclopenta[b]pyridin-2-yl)-N^6-(3-(methylsulfonyl)pyridin-2-yl)pyrimidine-4,6-diamine]",††† (†††: >0.39)
14,"C[C@H]1CN(C)CCN1c1ccc(Nc2cc(Nc3ncccc3S(C)(=O)=O)ncn2)nc1 [Compound 20, (S)—N^4-(5-(2,4-dimethylpiperazin-1-yl)pyridin-2-yl)-N^6-(3-(methylsulfonyl)pyridin-2-yl)pyrimidine-4,6-diamine]",††† (†††: >0.39)
